Experimental findings from patent US20210177795A1 (priority 2017, published 2021) are described below.

Peptide text beside a SMILES is read from it. * marks the point of attachment. X1 = CCCCCCCCCCCCCCCC(=O)OCC(C*)OC(=O)CCCCCCCCCCCCCCC

The conditions of the series: mouse, in vivo.

As to `CCCCCCCCCCCCCCCC(=O)OCC(CSC[C@H](N)C(=O)N[C@@H](CO)C(=O)N[C@@H](CO)C(=O)NCCOCCOCCOCCOCCOCCOCCOCCOCCOCCOCCOCCOCCC(=O)NCC(N)=O)OC(=O)CCCCCCCCCCCCCCC` (some centres unmarked) [INNA-003, PEG-S—S-Pam2Cys], the highest weight loss was 4.67%±2.12%. In the case of `CCCCCCCCCCCCCCCC(=O)OCC(CSC[C@H](N)C(=O)N[C@@H](CO)C(=O)N[C@@H](CCCCN)C(=O)N[C@@H](CCCCN)C(=O)N[C@@H](CCCCN)C(=O)N[C@@H](CCCCN)C(=O)O)OC(=O)CCCCCCCCCCCCCCC` (some centres unmarked) [Pam2Cys-SK4, dipalmitoyl-S-glyceryl cysteine-serine-(lysine)4, reference compound] (H-C(X1)SKKKK-OH), the “weight loss relative to baseline” value is listed as “little or no weight loss”.
